Reference: patent publication US7718391B2, “Assays for identifying modulators of rhomboid polypeptides” (Medical Research Council, priority 2001, dated 2010)
Like-named read-outs stand apart in the source and are kept apart here. Non-standard residues stand in square brackets, D forms with d. Residues, ends and D or L forms follow the SMILES beside them. *: point of attachment. Sta = CC(C)C[C@H](N)[C@@H](O)CC(=O)O; Isovaleryl = CC(C)CC(=O)*; Nle = CCCC[C@H](N)C(=O)O; Cbz = O=C(OCc1ccccc1)*

How the values were obtained:
[1] = tested on: artificially truncated form of Spitz; test: Control: expression or secretion of an artificially truncated (secreted) form of Spitz; format: cell-based, Drosophila; settings: this concentration (10-100:M)
Method: Cells were transfected as standard with 1 ng of Rhomboid-1 DNA (in 1 μg total DNA) and were then incubated in serum-free medium for 24 hours. The medium was then replaced with 0.5 ml serum free medium containing protease inhibitor at the indicated concentration and incubated for 1 hour. After 1 hour, the medium was collected, cleared by centrifugation, dialysed overnight against several changes of water and lyophilised. The resulting pellets were re-suspended in SDS sample buffer, boiled and analysed by Western blot. Transfections with a secreted form of Spitz were used in parallel to control for non-specific toxicity of the protease inhibitors or general inhibition of the secretory pathway.

Rhomboid-1 = target: T1, Rhomboid-1 (Drosophila melanogaster, UniProt P20350); test: Rhomboid-1 and Star dependent cleavage of GFP-Spitz in transfected COS cells (western blot of medium); format: cell-based
T1 construct: When co-expressed with Star and full-length Rhomboid-1 in the COS cell Spitz cleavage assay; expressed in transfected cells; host or cells: COS cells, pcDNA3.1 constructs, transient transfection
T1 sequence (P20350 1-355): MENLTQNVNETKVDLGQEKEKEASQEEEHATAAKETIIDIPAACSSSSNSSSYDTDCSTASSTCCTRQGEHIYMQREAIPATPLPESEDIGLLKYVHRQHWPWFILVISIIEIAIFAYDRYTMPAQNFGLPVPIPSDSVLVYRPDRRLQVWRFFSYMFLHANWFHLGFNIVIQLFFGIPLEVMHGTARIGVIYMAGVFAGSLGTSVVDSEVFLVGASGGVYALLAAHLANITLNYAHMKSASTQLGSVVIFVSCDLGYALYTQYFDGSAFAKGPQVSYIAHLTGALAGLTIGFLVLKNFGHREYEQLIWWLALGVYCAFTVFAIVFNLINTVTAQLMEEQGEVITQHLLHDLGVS
Method: COS cells were grown in DMEM medium (supplemented with 10% foetal calf serum), and transfected with FuGENE 6 Transfection Reagent (Roche). Cells were transfected in 35 mm culture wells with 25-250 ng of each construct and empty plasmid to bring the total DNA to 1 μg per well. 24-30 hours post-transfection the medium was replaced with serum-free medium; this was harvested 24 hours later and cells were lysed in SDS-sample buffer. GFP was detected in conditioned medium and cell lysates by western blot with a rabbit polyclonal antibody. For some experiments the serum-free medium was supplemented with the metalloprotease inhibitor batimastat (British Biotech) or ilomostat (Calbiochem). Cells were transfected as standard with 1 ng of Rhomboid-1 DNA (in 1 μg total DNA) and were then incubated in serum-free medium for 24 hours. The medium was then replaced with 0.5 ml serum free medium containing protease inhibitor at the indicated concentration and incubated for 1 hour. After 1 hour, the medium was collected, cleared by centrifugation, dialysed overnight against several changes of water and lyophilised. The resulting pellets were re-suspended in SDS sample buffer, boiled and analysed by Western blot. Transfections with a secreted form of Spitz were used in parallel to control for non-specific toxicity of the protease inhibitors or general inhibition of the secretory pathway. The proteolytic cleavage assay was recapitulated in a mammalian tissue culture system. Spitz was tagged with GFP near its N-terminus and transiently expressed in COS cells, in the presence or absence of Star and/or Rhomboid-1. The accumulation of the soluble extracellular fragment of GFP-Spitz in the cell medium was then measured by western blot.

[2] = tested on: uncleavable Spitz-TGFα chimera with Spitz residue G143 restored in the TGFα TMD
[3] = tested on: uncleavable Spitz-TGFα chimera (Spitz with residues 140-160 replaced by the equivalent residues from TGFα, with the TGFα C-terminus)
[4] = target: uncleavable Spitz-TGFα chimera with Spitz residue G143 restored in the TGFα TMD; remark: listed apart in the source
[5] = target: uncleavable Spitz-TGFα chimera (Spitz with residues 140-160 replaced by the equivalent residues from TGFα, with the TGFα C-terminus); remark: listed apart in the source

`O=c1oc(Cl)c(Cl)c2ccccc12` [3,4-DCI] was tested. Which “expression or secretion of an artificially truncated form of Spitz (extracellular domain)” value [1] did it give?
Its value is “did not effect”.

What about the “Rhomboid activity (summary statement)” value (Rhomboid-1) of the same molecule?
Its value is “inhibit”.

And the “inhibition of Rhomboid activity, standard cleavage assay with panel of inhibitors” value (“inhibition of Rhomboid activity” below) (Rhomboid-1; 10-100:M)?
Its value is “strongly inhibited”.

Which “inhibition of Rhomboid activity” value (Rhomboid-1; 50:M) does the source give for `CCOC(=O)[C@H]1O[C@@H]1C(=O)N[C@@H](CC(C)C)C(=O)NCCC(C)C` [E64d] here?
Its value is “No inhibition”.

For `O=C(O)/C(S)=C/c1ccc(I)cc1` [PD150606], which “inhibition of Rhomboid activity” value (Rhomboid-1; concentration not given) is on record?
Its value is “No inhibition”.

What does the source list for `Cc1ccc(S(=O)(=O)N[C@@H](Cc2ccccc2)C(=O)CCl)cc1` [TPCK]?
expression or secretion of an artificially truncated form of Spitz (extracellular domain) [1]: did not effect; Rhomboid activity (summary statement) (Rhomboid-1): inhibit; inhibition of Rhomboid activity, standard cleavage assay with panel of inhibitors (Rhomboid-1; 10-100:M): strongly inhibited

How did the “inhibition of Rhomboid activity” value (Rhomboid-1; 25:M) turn out when `CCCC[C@@H](C=O)NC(=O)[C@H](CC(C)C)NC(=O)[C@H](CC(C)C)NC(=O)OCc1ccccc1` [gamma secretase inhibitor I] (Cbz-Leu-Leu-[Nle]-aldehyde) was run?
The value was “No inhibition”.

What does the source list for `CNC(=O)[C@H](Cc1c[nH]c2ccccc12)NC(=O)[C@@H](CC(=O)NO)CC(C)C` [ilomostat]?
Rhomboid-1-dependent cleavage of Spitz (Rhomboid-1; concentration not given): insensitive; inhibition of Rhomboid activity, standard cleavage assay with panel of inhibitors (Rhomboid-1; concentration not given): No inhibition

How did the “inhibition of Rhomboid activity” value (Rhomboid-1; 100:M) turn out when `CC(=O)N[C@@H](CC(C)C)C(=O)N[C@@H](CC(C)C)C(=O)N[C@H](C=O)CCCNC(=N)N` [leupeptin] was run?
Its value is “No inhibition”.

With `CC(C)CC(=O)N[C@H](C(=O)N[C@H](C(=O)N[C@@H](CC(C)C)[C@@H](O)CC(=O)N[C@@H](C)C(=O)N[C@@H](CC(C)C)[C@@H](O)CC(=O)O)C(C)C)C(C)C` [pepstatin A] (Isovaleryl-VV[Sta]A[Sta]-OH) as the molecule, how does the “inhibition of Rhomboid activity” value (Rhomboid-1; 50:M) read?
The value was “No inhibition”.

How did the “protease activity against the TGFα TMD with a restored G143” value [2] turn out when Drosophila Rhomboid-2 was run?
Its value is “did cleave when only G143 was added back”.

And the “protease activity against the uncleavable form of Spitz” value [3]?
The value was “they could not cleave the TGFα TMD”.

For Drosophila Rhomboid-3, which “protease activity against the TGFα TMD with a restored G143” value [2] is on record?
Its value is “did cleave when only G143 was added back”.

And the “protease activity against the uncleavable form of Spitz” value [3]?
The value was “they could not cleave the TGFα TMD”.

B1: Human RHBDL2 (protein)
chain: MNLNMGREMKEELEEEEKMREDGGGKDRAKSKKVHRIVSKWMLPEKSRGTYLERANCFPPPVFIISISLAELAVFIYYAVWKPQKQWITLDTGILESPFIYSPEKREEAWRFISYMLVHAGVQHILGNLCMQLVLGIPLEMVHKGLRVGLVYLAGVIAGSLASSIFDPLRYLVGASGGVYALMGGYFMNVLVNFQEMIPAFGIFRLLIIILIIVLDMGFALYRRFFVPEDGSPVSFAAHIAGGFAGMSIGYTVFSCFDKALLKDPRFWIAIAAYLACVLFAVFFNIFLSPAN
What does the source list for B1?
protease activity against the TGFα TMD with a restored G143 [4]: did cleave when only G143 was added back; protease activity against the uncleavable form of Spitz [5]: they could not cleave the TGFα TMD
